Measured values from patent US20070244076A1, “Site and Rate Selective Prodrug Formulations of D609 with Antioxidant and Anticancer Activity” (priority 2003, published 2007).

Columns and labels:
[1] = system: Porcine liver esterase (PLE); experiment: Esterase-catalyzed hydrolysis of D609 prodrugs; type: in vitro ADME
Protocol: FIG. 18A, FIG. 18B, FIG. 18C: Esterase-catalyzed hydrolysis of D609 prodrugs. Prodrugs (300 μM in 15% DMSO/PBS, pH 7.4), 1 (FIG. 18A), 2 (FIG. 18B) and 3 (FIG. 18C), were incubated at 37° C. in the presence of 0.1 unit/ml PLE. […] The data are presented as the mean±SEM of three independent assays.
To determine the hydrolytic property of D609 prodrugs 1, 2, and 3 (300 μM in 15% DMSO/PBS, pH7.4), these prodrugs were incubated with 0.1 unit/ml PLE at 37° C. After various times during incubation, the rate of hydrolysis of these D609 prodrugs was monitored by HPLC analysis. […] The concentration of D609 (μM) was calculated based on a linear D609-DTNB standard curve. The pseudo-first-order plots for the hydrolysis of these prodrugs were constructed from the logarithm of remaining ester versus time (FIG. 18). The end points of the reaction (150 min) were defined as when the hydrolysis of these prodrugs was over 99% complete and the release of D609 reached plateau. The pseudo-first-order rate constant (Kobs) and T1/2 (=0.693/Kobs) were calculated based on the slope of the linear portion of the curve for each of these prodrugs and are presented in Table 1 (Gilmer et al., 2002).

[2] = system: lymphocytes; experiment: IR-induced oxidative events in lymphocytes; type: cell-based; conditions: pre-incubation of lymphocytes
[3] = 300 μM, 0.1 unit/ml PLE, 37° C., pH 7.4

With CCCC(=O)OCSC(=S)OC1CC2CC1C1CCCC21 (stereo not shown) [Prodrug 2, S-methyleneoxybutyryl D609] the T1/2 [1, 3] was 10.61 min, the kobs [1, 3] was 0.06532 min⁻¹ and the “% D609 (molar recovery of D609)” value ([1]; complete hydrolysis by esterase) was 93%.
With S=C([S-])OC1CC2CC1C1CCCC21.[K+] (stereo not shown) [Prodrug D609, Tricyclodecan-9-yl-xanthogenate] the “IR-induced events (ROS production, decrease in GSH, oxidative damage to proteins and lipids, NF-κB activation)” value [2] was “significant diminution”.
